Read-outs that look alike come from different tables or passages of the source. Square brackets hold non-standard residues; d marks the D form. Peptide text beside a SMILES is read from it. * marks the point of attachment. Propanoyl(3-(3-pyridyl)) = O=C(CCc1cccnc1)*; Arg(Me) = CNC(=N)NCCC[C@H](N)C(=O)O; d4Pal = N[C@H](Cc1ccncc1)C(=O)O; azaGly = NNC(=O)O
Legend:
[1] = tested on: hOT7T175-expressed CHO cells; assay type: cell-based
Description: Assay for Cell Growth Inhibition Activity in hOT7T175-Expressed Cho Cells hOT7T175-Expressed CHO cells (hereinafter hOT7T175) were cultured in DMEM supplemented with 10% dialyzed FBS (hereinafter 10% dFBS/DMEM), which was used for the following assay. The hOT7T175 was suspended in 10% dFBS/DMEM at 10,000 cells/ml. The cells were plated on a 96 well plate at 100 μL each/well (1,000 cells/well), followed by culturing overnight at 37° C. in a 5% CO2 incubator. On the following day, the medium was removed and 90 μL of 10% dFBS/DMEM supplemented with 0.5% BSA (hereinafter, 0.5% BSA/10% dFBS/DMEM) was added. […] After 10 μL of Cell Counting Kit-8 solution (Dojin Chemical Laboratory) was added to each well, incubation was performed at 37° C. in a 5% CO2 incubator for 4 hours and absorbance was measured at 450 nm.

rats = assay: Effect of metastin derivatives on blood glucose level and blood glucagon level; assay type: in vivo; conditions: for blood glucose level: i.v. 80 nmol/kg (FIG. 10); for blood glucagon level: i.v. 80 nmol/kg (FIG. 11)
Description: The value indicates (mean±SE) (n=5). The symbol * designates that the P-value is 0.05 or less, when compared to the saline group and the symbol ** designates that the P-value is 0.01 or less, when compared to the saline group.
In the figure, the symbols, open circle, closed circle and closed triangledesignate the blood glucagon level in the saline group and the group receiving 80 nmol/kg KiSS1-305 (Compound No. 305), the group receiving 80 nmol/kg KiSS1-322 (Compound No. 322), respectively. The value indicates (mean±SE) (n=5). The symbol * designates that the P-value is 0.05 or less, when compared to the saline group.
An operation was performed in free moving mature Wistar male rats (weighing […] at the time of operation) in a manner similar to TEST EXAMPLE 1 to collect blood. After the operation, the animal was maintained overnight. […] To prevent blood clotting, 3 μl of 300 KIU/ml aprotinin solution containing 3 mg/ml EDTA had previously been filled in the syringe. […] Blood was collected from the jugular vein by 300 μl each 2, 5, 15, 30, 45 and 60 minutes starting from the intravenous injection. The collected blood was centrifuged (13,000 rpm, 5 minutes) with a high speed refrigerated centrifuge (MR-150, Tomy Seiko Co., Ltd.) to recover the supernatant (plasma). Glucose level in blood was measured using Fuji Drychem 3500 (FUJI FILM) and glucagon level in blood was measured using a glucagon kit “Daiichi” (Daiichi Radioisotope Laboratories Ltd.), as in TEST EXAMPLE 1 or 2.

[2] = tested on: human colonic carcinoma-derived cell line SW620; assay: Tumor growth inhibition activity in tumor-bearing mice with SW620; assay type: in vivo; conditions: for tumor growth inhibition (tumor size) compared to the vehicle group: SW620 tumor-bearing BALB/cAnN-nu mice, s.c. osmotic pump
Description: The abscissa denotes the number of days after injection. The bar on the abscissa designates a dosing period. The ordinate denotes a tumor size (mm^3).
Evaluation of Tumor Growth Inhibition Activity
On the following day, human colonic carcinoma-derived cell line SW620 (ATCC) was dissolved in 20 mM phosphate buffered saline (pH 7.2)(PBS) containing 200 μL of 0.15M NaCl at a density of 2×10^6 cells. The resulting solution was subcutaneously injected into the left flank of the mice above. The day when the cells were injected was made Day 0. Tumor was measured with an electronic caliper every other or 2 other days during Days 4 to 13 from the cell administration, and tumor size was calculated by the following equation: […].

hOT7T175 = hOT7T175 (Homo sapiens, UniProt Q969F8, L364H); assay: hOT7T175 receptor binding activity: binding inhibition of Cy-5-labeled metastin (40-54) on hOT7T175-expressed CHO cells; set-up: expressed in transfected cells; host or cells: CHO cells
hOT7T175, sequence (Q969F8 whole entry L364H): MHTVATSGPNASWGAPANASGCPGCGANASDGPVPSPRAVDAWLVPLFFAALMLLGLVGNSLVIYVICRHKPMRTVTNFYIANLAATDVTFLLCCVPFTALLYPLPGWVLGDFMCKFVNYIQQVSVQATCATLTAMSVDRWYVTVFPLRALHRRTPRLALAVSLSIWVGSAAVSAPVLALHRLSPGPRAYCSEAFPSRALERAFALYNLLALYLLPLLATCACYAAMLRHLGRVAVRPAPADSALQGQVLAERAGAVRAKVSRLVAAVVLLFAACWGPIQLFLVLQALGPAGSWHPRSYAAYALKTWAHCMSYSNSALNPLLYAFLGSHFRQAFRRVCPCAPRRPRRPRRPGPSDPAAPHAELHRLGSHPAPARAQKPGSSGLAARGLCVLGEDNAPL

CNC(=N)NCCC[C@H](NC(=O)[C@H](CC(C)C)NC(=O)NNC(=O)[C@H](Cc1ccccc1)NC(=O)[C@H](CO)NC(=O)[C@H](CC(N)=O)NC(=O)[C@@H](Cc1ccncc1)NC(=O)[C@H](N)Cc1ccc(O)cc1)C(=O)N[C@@H](Cc1ccccc1)C(N)=O [Compound No. 305, D-Tyr-D-Pya(4)-Asn-Ser-Phe-AzaGly-Leu-Arg(Me)-Phe-NH2] (H-[dY][d4Pal]NSF[azaGly]L[Arg(Me)]F-NH2)
IC50 ([1]; hOT7T175-expressed CHO cells, 3 days culture, Cell Counting Kit-8, read-out: IC50 (M), cell growth inhibition activity): 8.94e-09 M
blood glucose level (rats): increase in the blood glucose level
blood glucagon level (rats): increase in the blood glucagon level
tumor growth inhibition (tumor size) compared to the vehicle group ([2]; 2.4 nmol/day/mouse×14 days): significant tumor growth inhibition activity from Days 5 to 11
tumor growth inhibition (tumor size) compared to the vehicle group ([2]; 24 nmol/day/mouse×14 days): significant effect of tumor growth inhibition from Days 5 to 9 and on Day 11
effect of tumor growth inhibition relative to Metastin ([2]; SW620 tumor-bearing mice, in vivo): 10 times

CNC(=N)NCCC[C@H](NC(=O)[C@H](CC(C)C)NC(=O)NNC(=O)[C@H](Cc1ccccc1)NC(=O)[C@H](CO)NC(=O)[C@H](CC(N)=O)NC(=O)CCc1cccnc1)C(=O)N[C@@H](Cc1ccccc1)C(N)=O [Compound No. 322, 3-Pyridylpropionyl-Asn-Ser-Phe-AzaGly-Leu-Arg(Me)-Phe-NH2] ({Propanoyl(3-(3-pyridyl))}-NSF[azaGly]L[Arg(Me)]F-NH2)
IC50 [1]: 7.19e-08 M
blood glucose level (rats): increase in the blood glucose level
blood glucagon level (rats): increase in the blood glucagon level
tumor growth inhibition compared with the Metastin group ([2]; 24 nmol/day/mouse×14 days, Day 11): significant tumor growth inhibition activity even when compared with the Metastin group
tumor growth inhibition (tumor size) compared to the vehicle group ([2]; 2.4 nmol/day/mouse×14 days): significant tumor growth inhibition activity in a 1/10 dose (2.4 nmol/day/mouse×14 days) of Metastin from Days 6 to 8
tumor growth inhibition (tumor size) compared to the vehicle group ([2]; 24 nmol/day/mouse×14 days): significant tumor growth inhibition activity from Days 6 to 11
IC50 (hOT7T175): 54 nM

Reference: patent US8361968B2 (Takeda Pharmaceutical Company Limited, priority 2002, dated 2013)
